# From ChEMBL document CHEMBL1201862, “PubChem BioAssay data set” (2004)
# Activity calls are given as the source filed them. Rule as the data show it, for most assays here: actives have a measured EC50 and inactives only a lower limit.
# How the values were obtained:
# [1] = target: T1, Protein skinhead-1 (Caenorhabditis elegans, UniProt P34707); format: functional
# T1 sequence (P34707 whole entry): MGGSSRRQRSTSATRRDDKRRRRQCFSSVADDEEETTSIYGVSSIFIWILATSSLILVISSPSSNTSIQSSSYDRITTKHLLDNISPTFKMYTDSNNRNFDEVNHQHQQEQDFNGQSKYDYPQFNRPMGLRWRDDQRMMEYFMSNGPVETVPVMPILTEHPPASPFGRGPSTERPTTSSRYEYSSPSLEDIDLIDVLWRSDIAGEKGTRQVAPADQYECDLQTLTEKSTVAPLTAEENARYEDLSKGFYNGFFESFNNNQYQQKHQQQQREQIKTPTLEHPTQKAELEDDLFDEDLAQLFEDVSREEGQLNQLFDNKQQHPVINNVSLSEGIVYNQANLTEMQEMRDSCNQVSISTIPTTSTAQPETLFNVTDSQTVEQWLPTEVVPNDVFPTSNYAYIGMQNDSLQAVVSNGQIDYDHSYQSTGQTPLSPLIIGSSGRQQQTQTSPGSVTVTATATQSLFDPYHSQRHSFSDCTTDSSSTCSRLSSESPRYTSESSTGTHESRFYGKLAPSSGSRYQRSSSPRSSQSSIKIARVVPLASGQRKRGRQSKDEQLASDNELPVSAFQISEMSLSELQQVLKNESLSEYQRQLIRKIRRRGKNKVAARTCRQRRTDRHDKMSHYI
# [2] = target: T2, Heat shock factor protein 1 (Mus musculus, UniProt P38532); assay: inhibition of MG132-induced HSE-luciferase signal, confirmation, cell-based, NIH3T3, luminescence, dose retest (AID 2382); format: functional;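 also: NIH3T3 fibroblasts with HSF1-driven luciferase reporter stressed by proteasome inhibitor MG132; luminescence from HSF1-driven luciferase expression after 8 hours of MG132 stress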
# T2 sequence (P38532 whole entry): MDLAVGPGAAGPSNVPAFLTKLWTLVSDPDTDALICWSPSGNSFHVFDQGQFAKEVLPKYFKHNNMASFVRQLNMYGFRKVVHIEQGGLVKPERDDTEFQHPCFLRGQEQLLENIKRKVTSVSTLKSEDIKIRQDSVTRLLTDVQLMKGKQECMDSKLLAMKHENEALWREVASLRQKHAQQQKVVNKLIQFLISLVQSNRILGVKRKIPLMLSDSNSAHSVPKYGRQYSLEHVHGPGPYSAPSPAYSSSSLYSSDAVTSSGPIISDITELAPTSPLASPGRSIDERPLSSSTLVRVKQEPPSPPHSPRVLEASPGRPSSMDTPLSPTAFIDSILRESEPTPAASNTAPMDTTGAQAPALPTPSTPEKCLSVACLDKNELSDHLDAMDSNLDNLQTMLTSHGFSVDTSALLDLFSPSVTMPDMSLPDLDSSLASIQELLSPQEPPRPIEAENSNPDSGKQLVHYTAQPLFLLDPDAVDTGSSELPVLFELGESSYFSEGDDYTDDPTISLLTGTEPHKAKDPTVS
# [3] = inhibitors of intracellular T. cruzi replication, confirmation, NIH3T3 host cells, beta-gal luminescence (AID 2044); format: functional, cell-based;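 also: intracellular parasites grown in NIH/3T3 mouse fibroblasts as host cells; luminescent beta-galactosidase reporter signal from transgenic T. cruzi replicating inside host cells; inhibitors lower the luminescence signal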
# [4] = target: T3, Calpain-2 catalytic subunit (Sus scrofa, UniProt P43367); assay: pig calpain II inhibitor potency, dose response, biochemical, fluorogenic peptide substrate (AID 1420); format: functional
# T3 sequence (P43367 whole entry): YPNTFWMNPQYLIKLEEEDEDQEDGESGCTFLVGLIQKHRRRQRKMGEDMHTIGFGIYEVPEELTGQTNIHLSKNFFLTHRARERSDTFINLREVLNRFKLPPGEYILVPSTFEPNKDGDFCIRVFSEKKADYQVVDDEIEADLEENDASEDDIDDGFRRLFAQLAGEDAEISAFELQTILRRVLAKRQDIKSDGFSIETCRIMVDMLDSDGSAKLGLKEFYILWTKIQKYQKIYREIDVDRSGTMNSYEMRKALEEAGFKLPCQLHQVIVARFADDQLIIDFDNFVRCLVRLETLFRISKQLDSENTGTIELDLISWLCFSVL
# [5] = cytotoxicity toward NIH3T3 fibroblasts, dose response, counter-screen, cell-based, ATP luminescence, mouse fibroblasts (AID 2010); format: functional;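 also: cells exposed to compound for about 90 hours before reading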
# [6] = test system: Streptococcus sp. 'group A'; assay: growth inhibition of control SK(-) GAS strain, dose response, counter-screen for streptokinase expression inhibitor project, luminescence, kanamycin, BacTiterGlo, confirmation (AID 1900); format: functional, organism-based
# [7] = target: T4, Streptokinase A (Streptococcus pyogenes serotype M1, UniProt P10520); assay: S. pyogenes streptokinase expression inhibitors, potency, dose response, plasminogen activation absorbance, OD405 (AID 1914); format: functional, Streptococcus pyogenes M1 GAS;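 also: secreted streptokinase activity via plasminogen activation per viability signal from cell pellet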
# T4 sequence (P10520 whole entry): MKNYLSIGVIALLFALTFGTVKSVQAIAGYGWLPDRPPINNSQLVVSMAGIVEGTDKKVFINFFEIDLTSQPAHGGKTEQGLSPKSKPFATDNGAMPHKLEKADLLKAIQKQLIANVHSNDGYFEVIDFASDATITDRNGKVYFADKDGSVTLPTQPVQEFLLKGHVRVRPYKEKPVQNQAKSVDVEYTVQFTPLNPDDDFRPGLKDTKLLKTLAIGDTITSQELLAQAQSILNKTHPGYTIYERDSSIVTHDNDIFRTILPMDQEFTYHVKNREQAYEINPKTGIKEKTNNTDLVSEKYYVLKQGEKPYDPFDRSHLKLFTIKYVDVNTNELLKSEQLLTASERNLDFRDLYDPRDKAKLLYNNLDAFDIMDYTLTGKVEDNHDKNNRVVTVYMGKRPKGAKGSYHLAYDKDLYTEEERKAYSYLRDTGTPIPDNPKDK
# [8] = test system: Streptococcus; assay: Group A Streptococcus viability loss, dose response, counter-screen for streptokinase expression inhibitor project, luminescence, BacTiterGlo (AID 1915); format: functional, organism-based;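 also: potency for reduction of bacterial viability or growth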
# [9] = Luminescence Cell-Based Dose Confirmation HTS to Identify Activators of 5'UTR Stem-Loop Driven Alpha-Synuclein mRNA Translation in H4 Neuroglioblastoma Cells. [Related pubchem assays: 1829 (Project Summary), 1814 (Primary HTS)]; format: functional
# [10] = Luminescence Cell-Based Dose Response HTS to Identify Activators of Luciferase Translation or Activity in H4 […] Cells. [Related pubchem assays: 1829 (Project Summary), 1814 (Primary HTS)]; format: functional
# [11] = test system: H4; assay: Luminescence Cell-Based Dose Response HTS to Identify Activators of 5'UTR Stem-Loop Driven Prion Protein mRNA Translation in H4 Neuroglioblastoma Cells. [Related pubchem assays: 1829 (Project Summary), 1814 (Primary HTS)]; format: functional; details: Homo sapiens
# [12] = HEp-2 cell cytotoxicity, dose response, cytotoxicity control for RSV inhibitor project, HTS (AID 2410); format: functional; details: human respiratory syncytial virus
# [13] = Luminescence Cell-Based Dose Retest to Confirm Inhibitors of Cancer Stem Cells. [Related pubchem assays (depositor defined):AID2717, AID2721]; format: functional; details: Homo sapiens
# 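For AC50 in this document: cells exposed to compound for roughly 70 hours or longer before luminescence read.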
structure (smiles),measurement,setting,value
Cc1cccc(C#Cc2ccccc2)n1,IC50,[1],> 100 µM (inactive)
COc1cccc(/C=C/C(=O)NCc2ccc3c(c2)OCO3)c1,EC50,[2],> 195 µM (not active)
CCN(CC)C(=O)c1ccc(-c2ccccc2)cc1,EC50,[2],> 195 µM (not active)
O=C(NCCC1=CCCCC1)c1ccc2c(c1)N(Cc1ccccc1)C(=O)CS2,EC50,[3],2.88 µM (active)
same,IC50,[4],5.5 µM (not active)
same,EC50,[5],> 30 µM (not active)
CCc1ccccc1NC(=O)c1ccc(NS(C)(=O)=O)cc1,EC50,[2],> 195 µM (not active)
COc1cc(C(=O)OCC(=O)c2c(N)n(C)c(=O)n(C)c2=O)ccc1OCCC(C)C,EC50,[6],12.7 µM (active)
same,EC50,[7],> 150 µM (not active)
same,EC50,[8],> 150 µM (not active)
CN1C(=O)/C(=C\c2ccccc2F)Sc2ccc(C(=O)NC3CCN(Cc4ccccc4)CC3)cc21,EC50,[6],7.12 µM (active)
same,EC50,[7],> 150 µM (not active)
same,EC50,[3],0.243 µM (active)
same,EC50,[5],> 60 µM (not active)
same,EC50,[8],41.8 µM (active)
Cc1ccccc1N=C(S)N(CCc1c(C)[nH]c2ccc(F)cc12)Cc1cccnc1,IC50,[4],> 50 µM (not active)
CC(C)(C)C1CC=C2C(C#N)=C(N)C(C#N)(C#N)C(c3cccs3)C2C1 (centres undefined),EC50,[6],14.9 µM (active)
same,EC50,[7],25.7 µM (active)
same,EC50,[8],> 150 µM (not active)
CCOC(=O)N1CCN(c2ncnc3c2cnn3-c2ccc(OC)cc2)CC1,IC50,[1],> 100 µM (inactive)
CS(=O)(=O)N(CC(=O)O)c1ccc(C23CC4CC(CC(C4)C2)C3)cc1,EC50,[2],> 195 µM (not active)
Clc1ccc(C#Cc2cccnc2)cc1,EC50,[9],17.4 µM (active)
same,EC50,[10],24.1 µM (active)
same,EC50,[11],1.73 µM (active)
same,IC50,[1],12.6 µM (active)
N#CCc1ccc(NC(=O)Nc2cccc3ccccc23)cc1,EC50,[2],> 195 µM (not active)
CC(C)c1ccc(-n2cccc2/C=C2/C(=N)N3C=CSC3=NC2=O)cc1,EC50,[6],2.1 µM (active)
same,EC50,[7],> 150 µM (not active)
same,EC50,[8],14.7 µM (active)
O=C1CC(C(=O)Nc2ccc(Cl)cc2)n2ncnc2N1 (centres undefined),IC50,[4],< 0.4 µM (not active)
Cc1cc2ccccc2n1CCNC(=O)COc1ccc2ccccc2c1,CC50,[12],21.4 µM (active)
CC(CCc1ccccc1)NC(=O)CSc1cccc[n+]1[O-] (centres undefined),IC50,[4],44.7 µM (not active)
Fc1ccc(CSc2nc3ccccc3[nH]2)c2ccccc12,EC50,[6],8.67 µM (active)
same,EC50,[7],14.1 µM (active)
same,IC50,[4],2.61 µM (not active)
same,EC50,[8],13.9 µM (active)
same,AC50,[13],5.37 µM (active)
CSc1ccc(CN(C)CC(=O)Nc2c(F)cccc2F)cc1,IC50,[4],2.25 µM (not active)
CCn1c(S(=O)(=O)O)nc2ccccc21,EC50,[2],> 195 µM (not active)
